Like-named read-outs stand apart in the source and are kept apart here.
Assays:
Arabidopsis seedlings = test: Seedling growth on media supplemented with IAN (auxin phenotype); type: in vivo
Text: Four nitrilases, differentially expressed during development and in response to environmental cues, catalyze hydrolysis of IAN to IAA in Arabidopsis (Bartel and Fink (1994) Proc. Natl. Acad. Sci. USA 91:6649-6653). The nitl mutant is insensitive to the auxin effects of exogenously applied IAN at the seedling stage (Normanly et al. (1997) Plant Cell 9:1781-1790). In accordance with the observed insensitivity of nit1 seedlings to IAN, NIT1 is most strongly expressed in the hypocotyl near the junction with the root in young seedlings as well as in the cotyledons. In contrast, NIT2 and NIT3 are expressed primarily in the cotyledons and NIT4 is expressed in the root tip (Bartel and Fink (1994) Proc. Natl. Acad. Sci. USA 91:6649-6653).

NIT1 = target: T1, NIT1 (Arabidopsis thaliana, UniProt P32961); settings: cited from earlier work
T1 sequence (P32961 1-346): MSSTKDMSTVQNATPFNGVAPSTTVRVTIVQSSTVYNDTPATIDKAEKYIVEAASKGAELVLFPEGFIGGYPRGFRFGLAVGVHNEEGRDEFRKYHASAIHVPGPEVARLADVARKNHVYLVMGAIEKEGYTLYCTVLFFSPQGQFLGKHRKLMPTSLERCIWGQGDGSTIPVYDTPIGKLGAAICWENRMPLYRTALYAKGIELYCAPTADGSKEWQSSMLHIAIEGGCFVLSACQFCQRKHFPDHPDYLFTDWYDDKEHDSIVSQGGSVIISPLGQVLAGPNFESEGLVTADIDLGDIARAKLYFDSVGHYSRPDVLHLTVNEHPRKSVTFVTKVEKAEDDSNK

NIT2 = target: T2, NIT2 (Arabidopsis thaliana, UniProt P32962); settings: cited from earlier work
T2 sequence (P32962 1-339): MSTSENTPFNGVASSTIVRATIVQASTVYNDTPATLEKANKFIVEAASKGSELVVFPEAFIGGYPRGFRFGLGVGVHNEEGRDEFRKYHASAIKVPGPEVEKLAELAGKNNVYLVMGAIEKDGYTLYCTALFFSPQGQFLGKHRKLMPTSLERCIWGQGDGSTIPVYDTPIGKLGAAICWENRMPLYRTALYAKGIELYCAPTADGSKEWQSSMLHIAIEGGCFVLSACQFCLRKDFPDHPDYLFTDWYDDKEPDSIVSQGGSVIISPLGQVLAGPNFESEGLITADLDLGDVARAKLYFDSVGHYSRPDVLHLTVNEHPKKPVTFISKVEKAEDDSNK

CYP83B1 [1] = target: T3, CYP83B1 (Arabidopsis thaliana, UniProt O65782); test: Spectral analysis (optical difference spectroscopy) of ligand binding to heterologously expressed CYP83B1 in yeast microsomes
T3 sequence (O65782 1-499): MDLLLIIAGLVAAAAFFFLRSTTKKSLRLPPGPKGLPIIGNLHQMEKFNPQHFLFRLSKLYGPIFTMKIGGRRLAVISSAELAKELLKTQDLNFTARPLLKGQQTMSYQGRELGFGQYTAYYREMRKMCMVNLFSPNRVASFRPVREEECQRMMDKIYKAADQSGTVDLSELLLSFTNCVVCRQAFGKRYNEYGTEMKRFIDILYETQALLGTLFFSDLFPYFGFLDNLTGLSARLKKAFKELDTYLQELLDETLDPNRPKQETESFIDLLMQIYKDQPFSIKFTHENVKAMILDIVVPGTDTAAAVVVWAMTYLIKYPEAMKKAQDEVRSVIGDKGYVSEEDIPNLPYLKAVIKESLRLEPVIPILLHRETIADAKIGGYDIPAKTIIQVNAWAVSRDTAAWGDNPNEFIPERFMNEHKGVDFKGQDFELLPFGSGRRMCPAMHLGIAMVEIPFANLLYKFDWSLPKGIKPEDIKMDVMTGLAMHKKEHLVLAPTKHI
Method: (§1) FIG. 3. (A) Analysis of CYP83B1 by optical difference spectroscopy. […] After incubation for 10 min at 28° C., reaction mixtures were extracted with ethylacetate and analyzed by TLC. (s) substrate, (p) product.

CYP83B1 [2] = target: T3, CYP83B1; test: CYP83B1 catalysis of [5-3H]indole-3-acetaldoxime metabolism (Km, Vmax, inhibition; TLC / scintillation counting)
Method: as §1
After incubation, reaction mixtures were stopped by adding SDS to 0.4% and were analyzed by thin layer chromatography (TLC). TLC plates were developed in chloroform/methanol/water (85:14:1) and radioactive bands visualized by autoradiography.
Reactions were stopped and extracted with ethylacetate. Aliquots of the substrate-containing ethylacetate phase and product-containing water phase were subjected to liquid scintillation counting.

wild type seedlings = test: Indole glucosinolate levels in seedlings grown on MS agar, quantified colorimetrically as SCN; type: in vivo, Arabidopsis; settings: wild type seedlings germinated on MS media with 100 μM tryptamine; two week old; n=10
Method: FIG. 6. Indole glucosinolate levels are affected by CYP83B1 expression. Indole glucosinolates in individual two week old seedlings grown on MS agar were quantified calorimetrically as SCN. 1) Wild type, 2) rnt1-1, 3) molecularly complemented line 3.25.11, 4) overexpression line 1.4.7, and 5) wild type grown on 100 μM tryptamine. Data are represented as the mean ±S.E, (n=10 seedlings). Except for the molecularly complemented line 3.25.11, mean indole glucosinolate values all differ from wild type seedling values at a 1% confidence value (t-test).
Tryptophan-derived indole-3-acetaldoxime is also an intermediate in the biosynthesis of indole glucosinolates.

[3] = substrate: ON=CCc1c[nH]c2ccccc12; test: purified protein, by the assay type; settings: other: in the presence of cysteine, 2.2 nM CYP83B1, 1 min at 28 °C, estimated, pH 7.6

N#CCc1c[nH]c2ccccc12 [IAN, indole-3-acetonitrile]
effect on rnt1-1 seedlings (germination) (Arabidopsis seedlings; rnt1-1 seedlings grown on 50 μM IAN): almost completely inhibiting germination | phenotype of wild type seedlings (Arabidopsis seedlings; wild type Arabidopsis seedlings on media with 50 μM IAN): phenocopy rnt1-1 seedlings | Km for IAN hydrolysis (NIT1): in the mM range | Km for IAN hydrolysis (NIT2): in the mM range

ON=CCc1c[nH]c2ccccc12 [indole-3-acetaldoxime]
type of binding spectrum caused (CYP83B1 [1]): weak reverse type I spectrum | turnover (number) (CYP83B1 [2]; in the presence of cysteine, 2.2 nM CYP83B1, 1 min at 28 °C): 53 min⁻¹

NCCc1c[nH]c2ccccc12 [tryptamine]
type of binding spectrum caused (CYP83B1 [1]; yeast microsomes containing CYP83B1): typical type IIa binding spectrum | inhibition of CYP83B1 catalysis (indole-3-acetaldoxime oxidation) (CYP83B1 [2]; 22 nM CYP83B1, 35 μM [5-3H]indole-3-acetaldoxime, 17.5 mM tryptamine, 10 min at 28 °C, TLC (FIG. 3B)): inhibitor | indole glucosinolate levels compared to wild type seedlings (wild type seedlings): reduced levels

B1: CYP83B1 (Arabidopsis thaliana) (protein)
chain: MDLLLIIAGLVAAAAFFFLRSTTKKSLRLPPGPKGLPIIGNLHQMEKFNPQHFLFRLSKLYGPIFTMKIGGRRLAVISSAELAKELLKTQDLNFTARPLLKGQQTMSYQGRELGFGQYTAYYREMRKMCMVNLFSPNRVASFRPVREEECQRMMDKIYKAADQSGTVDLSELLLSFTNCVVCRQAFGKRYNEYGTEMKRFIDILYETQALLGTLFFSDLFPYFGFLDNLTGLSARLKKAFKELDTYLQELLDETLDPNRPKQETESFIDLLMQIYKDQPFSIKFTHENVKAMILDIVVPGTDTAAAVVVWAMTYLIKYPEAMKKAQDEVRSVIGDKGYVSEEDIPNLPYLKAVIKESLRLEPVIPILLHRETIADAKIGGYDIPAKTIIQVNAWAVSRDTAAWGDNPNEFIPERFMNEHKGVDFKGQDFELLPFGSGRRMCPAMHLGIAMVEIPFANLLYKFDWSLPKGIKPEDIKMDVMTGLAMHKKEHLVLAPTKHI
Km [3]: 3 µM

Reference: patent publication US20070130640A1, “Methods of modulating auxin production in plants” (priority 2005, published 2007)
